# Results: US9803021B2 (The Regents of the University of California, priority 2012, dated 2017)
# Entries after “also recorded” stand apart in the source; their conditions may differ.
# What was measured:
# [1] = system: primary myeloma cells from patients; experiment: Treatment of primary myeloma cells from patients (trypan blue / MTT); type: cell-based, human; settings: 25 nM, 72 h
# Method: Trypan blue and MTT assays were used to determine the number of viable cells. The percentage of viable recovered cells was calculated based upon the number of viable cells recovered from DMSO-treated control cells, which was arbitrarily designated as 100%.
# Percent viable cell recovery was determined by trypan blue staining, with untreated control cells designated as 100%.
# Daudi cells = experiment: Binding of anti-CD138 IgG to Daudi cells; parameters: species or system human; settings: data not shown
# OCI-My 5 cells = experiment: Cell proliferation assay (3[H]-thymidine incorporation); type: cell-based, human; settings: OCI-My 5, 0.3 pM-25 nM, 3 days
# Method: The proliferative status of the cells was determined by measuring ^3[H]-thymidine incorporation.
# U266 [2] = experiment: Senescence induced β-gal activity at pH 6 (C12FDG, flow cytometry); type: cell-based, human; settings: U266, 1 nM, 3 days
# Method: (§1) Senescence induced β-galactosidase (β-gal) activity was detected as described previously (Debacq-Chainiaux et al. (2009) Nature Protocols, 4: 1798-1806). […] To induce lysosomal alkalinization, cells were incubated in 100 nM bafilomycin A1 (Sigma) for 1 h. Then cells were incubated for 30 min with the β-gal substrate dodecanoylaminofluorescein di-β-D-galactopyranoside (C12FDG; Invitrogen), which becomes fluorescent after cleavage by β-gal. After washing twice with cold PBS, cells were resuspended in cold PBS containing 1 mM phenylethyl thiogalactoside (PETG), a β-gal inhibitor, and analyzed by flow cytometry for C12-fluorescein.
# (§2) Intracellular β-galactosidase (β-gal) activity was measured as an indicator for replicative senescence. […] After treatment, cells were incubated with 100 nM bafilomycin A1 (Sigma) for 1 hour to induce lysosomal alkalinization. Then cells were incubated for 30 minutes with the 33 μM of β-gal substrate dodecanoylaminofluorescein di-β-D-galactopyranoside (C12FDG; Invitrogen), which becomes fluorescent after cleavage to C12-fluorescein. After washing twice with cold PBS, cells were resuspended in cold PBS containing 1 mM phenylethyl thiogalactoside (PETG), a β-gal inhibitor, and analyzed by flow cytometry for C12-fluorescein.
# OCI-My5 [3] = experiment: as above; type: cell-based, human; settings: OCI-My5, 1 nM, 3 days (also 4, 6, 7 days)
# Method: as §1, §2
# ANBL-6 [4] = experiment: as above; type: cell-based, human; settings: ANBL-6, 1 nM, 3 days (data not shown)
# Method: as §1, §2
# NCI-H929 = experiment: MTS assay (cell viability / metabolic activity); type: cell-based, human; settings: 3 days
# Method: (§3) Percent cell viability was determined using MTS solution (Promega, Madison, Wis.) by measuring absorbance at 490 nm using a Synergy HT Multi-Detection Microplate Reader (BioTek Instruments, Inc., Winooski, Vt.) with untreated cells being 100%. GraphPad Prism (GraphPad Software Inc., La Jolla, Calif.) was used to analyze data by non-linear regression with the log (inhibitor) vs. the response with a variable slope with the IC50 calculated. Data are expressed as a percentage of maximum metabolic activity. The experiments were performed in triplicate.
# as §3, with “Metabolic activity” for “Percent cell viability”, “(Promega)” for “(Promega, Madison, Wis.)”, “Instruments Inc.)” for “Instruments, Inc., Winooski, Vt.)”, “Inc.)” for “Inc., La Jolla, Calif.)”, “versus” for “vs.”, “slope.” for “slope with the IC50 calculated.”
# MM1-144 = experiment: MTS assay (cell viability / metabolic activity); type: cell-based, human; settings: MM144 (MM1-144), 3 days
# Method: as §3
# as §3, with “Metabolic activity” for “Percent cell viability”, “(Promega)” for “(Promega, Madison, Wis.)”, “Instruments Inc.)” for “Instruments, Inc., Winooski, Vt.)”, “Inc.)” for “Inc., La Jolla, Calif.)”, “versus” for “vs.”, “slope.” for “slope with the IC50 calculated.”
# U266 [5] = experiment: MTS assay (cell viability / metabolic activity); type: cell-based, human; settings: U266, 3 days
# Method: as §3
# as §3, with “Metabolic activity” for “Percent cell viability”, “(Promega)” for “(Promega, Madison, Wis.)”, “Instruments Inc.)” for “Instruments, Inc., Winooski, Vt.)”, “Inc.)” for “Inc., La Jolla, Calif.)”, “versus” for “vs.”, “slope.” for “slope with the IC50 calculated.”
# OCI-My5 [6] = experiment: MTS assay (cell viability / metabolic activity); type: cell-based, human; settings: OCI-My5, 3 days
# Method: as §3
# as §3, with “Metabolic activity” for “Percent cell viability”, “(Promega)” for “(Promega, Madison, Wis.)”, “Instruments Inc.)” for “Instruments, Inc., Winooski, Vt.)”, “Inc.)” for “Inc., La Jolla, Calif.)”, “versus” for “vs.”, “slope.” for “slope with the IC50 calculated.”
# ANBL-6 [7] = experiment: MTS assay (cell viability / metabolic activity); type: cell-based, human; settings: ANBL-6, 3 days or 7 days
# Method: as §3
# as §3, with “Metabolic activity” for “Percent cell viability”, “(Promega)” for “(Promega, Madison, Wis.)”, “Instruments Inc.)” for “Instruments, Inc., Winooski, Vt.)”, “Inc.)” for “Inc., La Jolla, Calif.)”, “versus” for “vs.”, “slope.” for “slope with the IC50 calculated.”
# OCI-My 5 tumors = experiment: OCI-My5 xenograft model in SCID mice; type: in vivo, mouse; settings: OCI-My5 s.c., 100 μg i.v. on days 14, 16, 18
# Excerpt: Eight mice were included in each group.
# Each group consisted of eight mice.
# U266 tumors = experiment: U266 xenograft model in NSG mice; settings: U266 s.c., 100 μg on days 14, 16, 18
# Method: For U266 tumors, NOD scid IL-2 receptor gamma chain knock out (NSG) mice were injected subcutaneously with 1×10^7 U226 cells and treated on days 14, 16 and 18 with 100 μg of the indicated proteins. […] Survival was monitored as well as the size of the tumors.
# For U266 tumors, experiments were carried out as described above except that NOD-scid IL2rγ^null (NSG) mice were used.
substance,measurement,setting,value
anti-CD138: Unfused human anti-CD138 IgG1 with VH and VL of antibody B-B4 [reference compound],"viability of primary myeloma cells, result in words",[1],little effect
same,binding to Daudi cells,Daudi cells,did not bind to Daudi cells
same,"proliferation (3[H]-thymidine incorporation), result in words",OCI-My 5 cells,did not decrease the ability of the cells to proliferate
same,"β-gal activity at pH 6 (senescence), result in words",U266 [2],no increase under any conditions
same,"β-gal activity at pH 6 (senescence), result in words",OCI-My5 [3],little or no increase in β-gal activity
same,"β-gal activity at pH 6 (senescence), result in words",ANBL-6 [4],no increases
same,"cell viability / growth inhibition (MTS assay), result in words",NCI-H929,no effect
same,"cell viability / growth inhibition (MTS assay), result in words",MM1-144,no effect
same,"cell viability / growth inhibition (MTS assay), result in words",U266 [5],no effect
same,"cell viability / growth inhibition (MTS assay), result in words",OCI-My5 [6],no effect
same,"cell viability / growth inhibition (MTS assay), result in words",ANBL-6 [7],no effect
same,"survival / protection, result in words",OCI-My 5 tumors,increased survival slightly; also recorded: did not differ significantly from PBS treated mice
same,"survival / protection against tumor growth, result in words",U266 tumors,significant protection
